The source of these data is article PMC12196455, “Effect of Tegoprazan on Tacrolimus and Mycophenolate Levels in Kidney Transplant Recipients: A Randomized Controlled Study Using a Smart Trial Platform” (Pharmaceuticals, 2025).

Data set [1] in a line: Mycophenolate (mycophenolic acid) trough level (12 h post-dose, PETINIA immunoassay) in the randomized trial of tegoprazan vs pantoprazole. The format is in vivo, human (kidney transplant recipients). The settings on record: mean ± SD. An excerpt: (§1) This study was a prospective, open-label, randomized controlled trial conducted on KTRs receiving tacrolimus, mycophenolate, and steroids. This study was registered at the Clinical Research Information Service (CRIS), Republic of Korea (Registration No. KCT 0010481, registration date: 20 May 2025). Data analysis took place at Kyungpook National University Hospital, Republic of Korea, from August 2022 to May 2023. The trial adhered to the approval guidelines of the Institutional Review Board of Kyungpook National University Hospital (IRB No. 2022-02-013, approval date: 31 March 2022).
(§2) Patients were randomly assigned to either the P-CAB (tegoprazan 50 mg) group or the PPI (pantoprazole 20 mg) group. Enrolled KTRs were scheduled for four visits at baseline, 4, 8, and 12 weeks post-randomization. The dosage of immunosuppressants remained unchanged throughout the 12-week study period. Blood tests, including measurements of immunosuppressant trough levels, serum creatinine levels, estimated glomerular filtration rate (eGFR), and vital signs, were conducted at each visit.
(§3) The primary outcome was to compare changes in drug concentrations of tacrolimus and mycophenolate following the administration of tegoprazan in KTRs.
(§4) Trough levels of tacrolimus and mycophenolate were measured at 12 h post-dose, following standard clinical practice for therapeutic drug monitoring in transplant recipients. Blood samples were collected at scheduled morning visits, and the 12 h interval was confirmed using electronic pillbox adherence data or patient interviews. Tacrolimus concentrations were measured using the Dimension® TAC Flex® reagent cartridge (Siemens Healthcare Diagnostics Inc., Newark, NJ, USA) on the Siemens Dimension® Integrated Chemistry System, employing a homogeneous chemiluminescent immunoassay (CLIA) method. Mycophenolic acid concentrations were measured using the Dimension® MPA Flex® reagent cartridge (Siemens Healthcare Diagnostics Inc., Newark, USA) on the same system, based on a particle-enhanced turbidimetric inhibition immunoassay (PETINIA) method. All assays were conducted in the Department of Laboratory Medicine at the study hospital.

Data set [2] in a line: Time in therapeutic range (TTR) analysis of tacrolimus and mycophenolate. The format is in vivo, human (kidney transplant recipients). The settings on record: across all visits; result in words. As to the method:
Continuous variables were expressed as mean ± standard deviation, while categorical variables were presented as numbers and percentages. For normally distributed data, t-tests were utilized; for non-normally distributed data, the Mann–Whitney U test was applied. Intragroup variations between baseline and 12 weeks were analyzed using paired t-tests. Differences in the frequency of transplant outcomes were assessed using the χ^2 test or Fisher’s exact test. Differences in GI symptom questionnaire scores, assessed via e-diary surveys, were analyzed using t-tests or the Mann–Whitney U test, as appropriate. We conducted a TTR analysis for both tacrolimus and mycophenolate to evaluate the potential effects of tegoprazan on immunosuppressant stability. The predefined therapeutic range was set at […] for tacrolimus and at 1–3.5 µg/mL for mycophenolate. TTR was calculated as the proportion of time each drug level remained within the therapeutic window across the study period. All statistical analyses were performed using IBM SPSS Statistics 25 for Windows, […]. A p-value of <0.05 was considered statistically significant.

The nature of data set [3]: Transplant outcomes (eGFR, de novo DSA, BPAR, allograft loss). The settings on record: for eGFR: mean ± SD. The format is in vivo, human (kidney transplant recipients). On the procedure:
Patients were randomly assigned to either the P-CAB (tegoprazan 50 mg) group or the PPI (pantoprazole 20 mg) group. Enrolled KTRs were scheduled for four visits at baseline, 4, 8, and 12 weeks post-randomization. The dosage of immunosuppressants remained unchanged throughout the 12-week study period. Blood tests, including measurements of immunosuppressant trough levels, serum creatinine levels, estimated glomerular filtration rate (eGFR), and vital signs, were conducted at each visit. The collected data included patient demographics such as gender, age, height, weight, blood tacrolimus, mycophenolate concentrations, kidney function, liver function tests, allograft loss, and acute rejection episodes. We collected DSA information. DSA was identified using the Luminex single-antigen assay (LSA). […] The secondary outcome included evaluating transplant outcomes and GI symptoms using questionnaires. The transplant outcomes assessed were changes in eGFR, biopsy-proven acute rejection (BPAR), allograft loss, and de novo DSA during the study period. De novo DSA was defined as the new appearance of antibodies against mismatched donor human leukocyte antigen (HLA) not present at baseline.

A short description of data set [4]: GI symptom questionnaires (GERD-HRQL, RDQ) via electronic diary app. The following applies: mean ± SD. Details: key to GERD-HRQL score: sum of 10 items each scored 0-5; higher = poorer quality of life. The format is in vivo, human (kidney transplant recipients). On the procedure: Changes in GI symptoms were measured and recorded using a self-developed electronic diary app installed on participants’ mobile phones. This app facilitated the assessment of GI symptoms through the Gastroesophageal Reflux Disease–Health-Related Quality of Life (GERD-HRQL) and Reflux Disease Questionnaire (RDQ). The GERD-HRQL scale comprises 10 items, addressing both GI symptoms and the patient’s overall condition. Each item is scored on a scale from 0 to 5, with higher scores indicating a poorer quality of life. The RDQ is a 6-item self-administered questionnaire designed to evaluate the severity and frequency of heartburn sensation, gastric acid regurgitation, and dyspepsia.
The secondary outcome included evaluating transplant outcomes and GI symptoms using questionnaires. The transplant outcomes assessed were changes in eGFR, biopsy-proven acute rejection (BPAR), allograft loss, and de novo DSA during the study period. De novo DSA was defined as the new appearance of antibodies against mismatched donor human leukocyte antigen (HLA) not present at baseline.

The nature of the next data set: Adverse event monitoring. The format is in vivo, human (kidney transplant recipients). The settings on record: 12 weeks. On the procedure:
Safety evaluations were conducted through comprehensive monitoring, including physical examinations, clinical laboratory tests, vital signs, and the documentation of adverse events (AEs). Participants were encouraged to voluntarily report AEs regularly throughout the study.

For data set [5] the following is noted: result in words, cited from earlier work.
Data set [6] in a line: Tacrolimus blood trough level (12 h post-dose, chemiluminescent immunoassay) in the randomized trial of tegoprazan vs pantoprazole. The format is in vivo, human (kidney transplant recipients). The settings on record: mean ± SD.
Excerpt: as §1, §2, §3, §4

The conditions of data set [7]: result in words, cited from earlier work. The source holds these as a separate data set.
Setting [8] is: P-CAB group (tegoprazan 50 mg, n = 26), Baseline.
Where [9] appears, read: P-CAB group (tegoprazan 50 mg, n = 26), Week 4.
The mark [10] stands for this setting: P-CAB group (tegoprazan 50 mg, n = 26), Week 8.
Where [11] appears, read: P-CAB group (tegoprazan 50 mg, n = 26), Week 12.
Setting [12] is: PPI group (pantoprazole 20 mg, n = 25), Baseline.
The mark [13] stands for this setting: PPI group (pantoprazole 20 mg, n = 25), Week 4.
The mark [14] stands for this setting: PPI group (pantoprazole 20 mg, n = 25), Week 8.
The mark [15] stands for this setting: PPI group (pantoprazole 20 mg, n = 25), Week 12.
Where [16] appears, read: during the 12-week study period.

With `COc1c(C)c2c(c(O)c1C/C=C(\C)CCC(=O)O)C(=O)OC2` [Mycophenolate, mycophenolate], the Mycophenolate trough level worked out at 2.3 ± 1.4 µg/mL in data set [1] (setting [8]); 2.5 ± 1.1 µg/mL in data set [1] (setting [9]); 2.8 ± 1.8 µg/mL in data set [1] (setting [10]); 2.7 ± 1.4 µg/mL in data set [1] (setting [11]); 2.6 ± 1.3 µg/mL in data set [1] (setting [12]); 2.7 ± 1.1 µg/mL in data set [1] (setting [13]). Also, the Mycophenolate trough level in data set [1] (setting [14]) stood at 2.7 ± 2.4 µg/mL; in data set [1] (setting [15]), 2.6 ± 1.4 µg/mL. In data set [2], the “Time in therapeutic range (TTR), P-CAB vs PPI group” value is listed as “comparable between the two groups”.
`COc1ccnc(C[S+]([O-])c2nc3ccc(OC(F)F)cc3[nH]2)c1OC` (centres unmarked) [PPI, pantoprazole] showed an eGFR in data set [3] (Baseline) of 57.7 ± 14.9 mL/min/1.73 m^2. The molecule also gave an eGFR in data set [3] (Week 4) of 60.1 ± 14.8 mL/min/1.73 m^2. The eGFR in data set [3] (Week 8) turned out to be 63.6 ± 14.1 mL/min/1.73 m^2. Also, the eGFR in data set [3] (Week 12) stood at 60.6 ± 14.7 mL/min/1.73 m^2. Further, in data set [3] (setting [16]), the “Allograft Loss” value amounted to 0 number and the BPAR came out at 0 number. The molecule also had an RDQ score in data set [4] (Baseline) of 3.2 ± 3.3. Moreover, the GERD-HRQL score in data set [4] (Baseline, higher score = poorer quality of life) turned out to be 2.8 ± 2.3. In data set [4] (Week 4), this molecule gave a GERD-HRQL score of 0.7 ± 1.2 and an RDQ score of 0.3 ± 0.9. In data set [4] (Week 8), this molecule displayed a GERD-HRQL score of 0.9 ± 1.8 and an RDQ score of 0.4 ± 1.0. Besides, in data set [4] (Week 12), the GERD-HRQL score turned out to be 0.5 ± 1.1 and the RDQ score amounted to 0.7 ± 2.0. In the data set “Adverse event monitoring”, the “AE: Abdominal discomfort” value is 2 (8.0) number (%), the “AE: Arthralgia” value is listed as 0 (0.0) number (%), the “AE: COVID-19” value is reported as 2 (8.0) number (%) and the “AE: Constipation” value was 0 (0.0) number (%). In addition, in the data set “Adverse event monitoring”, the “AE: Diarrhea” value was 0 (0.0) number (%), the “AE: Headache” value is on record as 1 (4.0) number (%), the “AE: Hypertension” value is reported as 0 (0.0) number (%) and the “AE: Hypoglycemia” value is recorded as 0 (0.0) number (%). In the data set “Adverse event monitoring”, the “AE: Myalgia” value is reported as 1 (4.0) number (%); the “AE: Nausea, vomiting” value is 0 (0.0) number (%); the “AE: Productive cough, sputum” value is on record as 0 (0.0) number (%); the “AE: Pyrexia” value is reported as 1 (4.0) number (%). Further, in “Adverse event monitoring”, the “AE: Toothache” value was 1 (4.0) number (%), the “AE: Upper respiratory tract infection” value is 1 (4.0) number (%), the “AE: Urinary tract infection” value is on record as 1 (4.0) number (%) and the “AE: Vertigo” value is recorded as 1 (4.0) number (%). Moreover, in “Adverse event monitoring”, the “Participants with AEs” value was 7 (28.0) number (%), the “Participants with SAEs” value is 0 (0.0) number (%) and the “Withdrawal due to AEs” value is on record as 0 (0.0) number (%). Also, in “Adverse event monitoring” (p = 0.032 between groups), the “Overall incidence of AEs” value was 28.0%. Moreover, the “Effect on trough levels of tacrolimus and cyclosporine” value in data set [5] (12 solid organ transplant patients, five consecutive days of therapy) was “did not affect”. Also, the “Effect on serum trough levels of tacrolimus” value in data set [5] (liver transplant recipients, co-administration over one year) is recorded as “does not influence”.
Turning to `C=CC[C@@H]1/C=C(\C)C[C@H](C)C[C@H](OC)[C@H]2O[C@@](O)(C(=O)C(=O)N3CCCC[C@H]3C(=O)O[C@H](/C(C)=C/[C@@H]3CC[C@@H](O)[C@H](OC)C3)[C@H](C)[C@@H](O)CC1=O)[C@H](C)C[C@@H]2OC` [Tacrolimus, tacrolimus], the Tacrolimus trough level in data set [6] (setting [8]) was 5.0 ± 1.6 ng/mL; in data set [6] (setting [9]), 5.3 ± 1.3 ng/mL; in data set [6] (setting [10]) it was 6.3 ± 1.9 ng/mL; in data set [6] (setting [11]) it was 5.5 ± 1.6 ng/mL; in data set [6] (setting [12]), 5.4 ± 1.4 ng/mL; in data set [6] (setting [13]) it was 5.5 ± 1.6 ng/mL. The Tacrolimus trough level is reported as 5.7 ± 2.4 ng/mL in data set [6] (setting [14]) and 5.8 ± 2.0 ng/mL in data set [6] (setting [15]). In addition, the “Time in therapeutic range (TTR), P-CAB vs PPI group” value in data set [2] is “comparable between the two groups”.
With `CNCc1cc(-c2ccccc2F)n(S(=O)(=O)c2cccnc2)c1` [vonoprazan], the “Effect on tacrolimus concentration” value in data set [7] (KTRs, switching from rabeprazole to vonoprazan, two retrospective studies) is “increased”. Also, the “Effect on tacrolimus trough levels” value in data set [7] (conversion from rabeprazole to vonoprazan, regardless of CYP3A5 genotypes) was “did not alter”.
